Measurements published in ChEMBL document CHEMBL4610073, “Potential Antidiabetic Fumiquinazoline Alkaloids from the Marine-Derived Fungus Scedosporium apiospermum F41-1” (J Nat Prod, 2020).
The source made the active and inactive calls. The calls are words filed in the database; no cut-off is given here.

Columns and labels:
[1] = test system: 3T3-L1; assay: Antidiabetic activity in mouse 3T3L1 preadipocytes assessed as increase in triglycerides level after 6 days; assay type: functional, cell-based; conditions: 3T3-L1, 144 h
[2] = test system: 3T3-L1; assay: Antidiabetic activity in mouse 3T3L1 preadipocytes assessed as increase in triglycerides level at 1 to 5 uM after 6 days by ORO staining based microscopic method; assay type: functional, cell-based
[3] = test system: 3T3-L1; assay: Antidiabetic activity in mouse 3T3L1 preadipocytes assessed as increase in triglycerides level at 5 uM up to 3 days by ORO staining based microscopic method; assay type: functional, cell-based
[4] = test system: 3T3-L1; assay: Antidiabetic activity in mouse 3T3L1 preadipocytes assessed as increase in triglycerides level at 5 uM after 3 to 6 days by ORO staining based microscopic method; assay type: functional, cell-based
[5] = test system: 3T3-L1; assay: Antidiabetic activity in mouse 3T3L1 preadipocytes assessed as increase in triglycerides level at 5 uM after 6 days; assay type: functional, cell-based
[6] = test system: 3T3-L1; assay: Cytotoxicity against mouse 3T3L1 preadipocytes assessed as reduction in cell viability at 50 uM; assay type: cell-based; conditions: 3t3-l1, 50 µM
[7] = biological target: T1, Peroxisome proliferator-activated receptor gamma (Mus musculus) (UniProt P37238); assay: Agonist activity at PPARgamma in mouse 3T3L1 preadipocytes assessed as increase in LXRalpha mRNA expression at 5 uM after 6 days by RT-PCR analysis; assay type: cell-based; conditions: 3T3-L1
T1 sequence (whole entry): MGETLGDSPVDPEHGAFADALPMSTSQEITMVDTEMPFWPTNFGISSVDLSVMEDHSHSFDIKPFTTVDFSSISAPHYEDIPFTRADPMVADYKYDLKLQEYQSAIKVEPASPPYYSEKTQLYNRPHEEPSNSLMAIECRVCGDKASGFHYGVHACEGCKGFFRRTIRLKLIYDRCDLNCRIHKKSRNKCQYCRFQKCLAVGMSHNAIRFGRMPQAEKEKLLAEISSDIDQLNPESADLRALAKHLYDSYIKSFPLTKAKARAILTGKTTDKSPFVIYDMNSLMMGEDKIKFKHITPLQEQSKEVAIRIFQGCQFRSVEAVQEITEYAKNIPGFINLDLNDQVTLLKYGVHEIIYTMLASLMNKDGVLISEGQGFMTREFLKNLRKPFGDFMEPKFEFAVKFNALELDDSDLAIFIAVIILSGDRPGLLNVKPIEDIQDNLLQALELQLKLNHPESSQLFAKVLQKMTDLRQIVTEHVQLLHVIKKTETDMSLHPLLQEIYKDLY

[8] = biological target: T1, Peroxisome proliferator-activated receptor gamma (Mus musculus); assay: Agonist activity at PPARgamma in mouse 3T3L1 preadipocytes assessed as increase in FABP4 mRNA expression at 5 uM after 6 days by RT-PCR analysis; assay type: cell-based; conditions: 3T3-L1
[9] = biological target: T1, Peroxisome proliferator-activated receptor gamma (Mus musculus); assay: Agonist activity at PPARgamma in mouse 3T3L1 preadipocytes assessed as increase in PPARgamma mRNA expression at 5 uM after 6 days by RT-PCR analysis; assay type: cell-based; conditions: 3T3-L1
[10] = test system: 3T3-L1; assay: Antidiabetic activity in mouse 3T3L1 preadipocytes assessed as increase in triglycerides level at 5 uM after 6 days in presence of GW9662; assay type: functional, cell-based
[11] = biological target: T1, Peroxisome proliferator-activated receptor gamma (Mus musculus); assay: Agonist activity at PPARgamma in mouse 3T3L1 preadipocytes assessed as increase in AMPKalpha mRNA expression at 5 uM after 6 days by RT-PCR analysis; assay type: cell-based; conditions: 3T3-L1
[12] = biological target: T1, Peroxisome proliferator-activated receptor gamma (Mus musculus); assay: Agonist activity at PPARgamma in mouse 3T3L1 preadipocytes assessed as increase in C/EBPalpha mRNA expression at 5 uM after 6 days by RT-PCR analysis; assay type: cell-based; conditions: 3T3-L1
[13] = biological target: T1, Peroxisome proliferator-activated receptor gamma (Mus musculus); assay: Agonist activity at PPARgamma in mouse 3T3L1 preadipocytes assessed as increase in SCD-1 mRNA expression at 5 uM after 6 days by RT-PCR analysis; assay type: cell-based; conditions: 3T3-L1
[14] = test system: 3T3-L1; assay: Antidiabetic activity in mouse 3T3L1 preadipocytes assessed as increase in triglycerides level at 5 uM after 6 days in presence of T0070907; assay type: functional, cell-based

Row | SMILES | EC50 [1] [nM] | Activity [2] | Activity [3] | Activity [4] | Activity [5] | Activity [6] | Activity [7] | Activity [8] | Activity [9] | Activity [10] | Activity [11] | Activity [12] | Activity [13] | Activity [14]
1 | CN(CCOc1ccc(CC2SC(=O)NC2=O)cc1)c1ccccn1 (stereo unspecified) [ROSIGLITAZONE] | 120 | – | – | – | – | – | – | – | – | – | – | – | – | –
2 | C/C=C1\NC(=O)[C@@H](Cc2c[nH]c3ccccc23)n2c1nc1ccccc1c2=O | 1030 | Active | Active | Active | Active | Non-Toxic | – | – | – | – | – | – | – | –
3 | CC[C@@H]1N[C@@H]2N(C1=O)c1ccccc1[C@@]2(O)C[C@@H]1C(=O)NC(=C(C)C)c2nc3ccccc3c(=O)n21 | 270 | Active | Active | Active | Active | Non-Toxic | Active | Active | Active | inactive | Active | Active | Active | inactive
4 | CC(C)=C1NC(=O)[C@@H](C[C@]2(O)c3ccccc3N3C(=O)C(C)(C)N[C@H]32)n2c1nc1ccccc1c2=O | 2340 | Active | Active | Active | Active | Non-Toxic | – | – | – | – | – | – | – | –
5 | CC(C)=C1NC(=O)[C@@H](C[C@]2(O)c3ccccc3N3C(=O)[C@H](C(C)C)N[C@H]32)n2c1nc1ccccc1c2=O | 360 | Active | Active | Active | Active | Non-Toxic | Active | Active | Active | inactive | Active | Active | Active | inactive
